Where “and” joins values, the source holds several entries; their conditions need not be identical. Equal entries are not always repeated. Where two headings read alike, the source gives them in different places.
What was measured:
[1] = tested on: Mtb H37Rv; test: Minimum bactericidal concentration (MBC), Mtb H37Rv; format: cell-based, Mycobacterium tuberculosis; conditions: for MBC: Mycobacterium tuberculosis, H37RV
[2] = molecular target: ClpC1-NTD substrate, M. tuberculosis ClpC1P1P2 (Mycobacterium tuberculosis, UniProt P9WPC9); test: biochemical; format: biochemical; conditions: read-out: DC50, Mean
Sequence of ClpC1-NTD substrate, M. tuberculosis ClpC1P1P2 (P9WPC5 whole entry): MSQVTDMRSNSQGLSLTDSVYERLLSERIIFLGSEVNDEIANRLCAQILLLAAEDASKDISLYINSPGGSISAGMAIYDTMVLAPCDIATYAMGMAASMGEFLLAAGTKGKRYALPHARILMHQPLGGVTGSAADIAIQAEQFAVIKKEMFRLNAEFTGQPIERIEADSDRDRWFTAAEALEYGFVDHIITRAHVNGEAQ
Sequence of ClpC1-NTD substrate, M. tuberculosis ClpC1P1P2 (P9WPC9 whole entry): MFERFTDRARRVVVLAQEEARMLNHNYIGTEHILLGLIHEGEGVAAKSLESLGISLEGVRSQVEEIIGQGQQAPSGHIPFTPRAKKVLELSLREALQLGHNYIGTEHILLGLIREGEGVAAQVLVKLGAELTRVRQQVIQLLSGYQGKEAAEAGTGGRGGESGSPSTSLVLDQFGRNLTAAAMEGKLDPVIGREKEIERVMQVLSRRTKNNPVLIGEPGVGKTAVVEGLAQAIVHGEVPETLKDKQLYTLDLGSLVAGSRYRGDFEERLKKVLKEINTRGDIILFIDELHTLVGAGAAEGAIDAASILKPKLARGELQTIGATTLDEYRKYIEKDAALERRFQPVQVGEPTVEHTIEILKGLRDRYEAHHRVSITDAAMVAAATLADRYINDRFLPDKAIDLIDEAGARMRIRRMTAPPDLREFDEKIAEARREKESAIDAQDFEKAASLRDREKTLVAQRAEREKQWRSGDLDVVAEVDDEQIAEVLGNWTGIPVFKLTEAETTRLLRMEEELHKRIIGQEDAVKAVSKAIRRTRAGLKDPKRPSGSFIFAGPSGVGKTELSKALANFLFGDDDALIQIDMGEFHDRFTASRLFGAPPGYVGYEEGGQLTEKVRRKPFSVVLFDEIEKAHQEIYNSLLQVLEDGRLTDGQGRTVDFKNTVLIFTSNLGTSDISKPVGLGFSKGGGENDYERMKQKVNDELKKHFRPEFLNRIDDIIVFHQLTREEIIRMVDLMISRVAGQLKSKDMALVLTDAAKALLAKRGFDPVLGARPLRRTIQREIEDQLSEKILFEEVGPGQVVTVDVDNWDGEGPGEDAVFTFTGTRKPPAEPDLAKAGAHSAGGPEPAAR
Sequence of ClpC1-NTD substrate, M. tuberculosis ClpC1P1P2 (P9WPC3 whole entry, further chain): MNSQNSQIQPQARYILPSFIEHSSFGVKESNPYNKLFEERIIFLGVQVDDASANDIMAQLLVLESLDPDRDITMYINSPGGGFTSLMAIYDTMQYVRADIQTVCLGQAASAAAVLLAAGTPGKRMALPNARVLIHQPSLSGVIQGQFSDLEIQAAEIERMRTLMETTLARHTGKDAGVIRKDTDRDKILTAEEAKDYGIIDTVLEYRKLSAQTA

[3] = format: in vitro ADME, Rat; conditions: rat, microsomes, pH 7.5
In short: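 Read-out: parent loss by HPLC-MS/MS, first-order fit, half-life scaled to %Qh (well-stirred liver model). Conditions: 1 µmol/l cpd, 0.5 mg/ml microsomes, 100 mM Tris-HCl pH 7.5, 6.5 mM MgCl2, 1 mM NADPH, 37 °C; acetonitrile stop at multiple times.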

[4] = in vivo; format: in vivo, BALB/cAnNCrl mice; conditions: male, BALB/cAnNCrl, mouse, in vivo, po
Procedure: The in-life experimental procedures were conducted in strict compliance with German and European animal welfare legislation in an AAALAC-accredited facility. Male BALB/cAnNCrl mice (Charles River Laboratories Research Models and Services, 97633 Sulzfeld, Germany) were used. Animals were 9 weeks old at dosing with a body weight of 21.6–24.3 g. Animals were delivered free of pathogens according to FELASA recommendations with a health certificate provided by the breeder. Upon receipt, the state of health and sex was checked. Animals acclimatized for at least 5 days before the commencement of the in-life phase. During acclimation, animals were group-housed in individually ventilated cages, on birch wood granulate bedding with species-specific enrichment (nesting material, mouse igloo, gnawing wood). During experimental conduct, animals were housed in conventional cages with elevated grid floors. Grid floor was used to avoid contamination with test item material excreted via urine and feces and subsequent reuptake during fur grooming. No bedding and enrichment were provided except a cage divider, which can be used as a shelter. Animals always had unlimited access to food and water and received a pelleted, total pathogen-free maintenance diet and tap drinking water, sterilized by filter.
On the day before dosing, test item(s) were suspended in kleptose (20% in WFI) under continuous stirring (3.0 mg/ml). Following 2 min vortexing and 1 h stirring, the formulation was sonicated at 60 °C for 30 min and stirred at ambient temperature overnight. Before dosing, the formulation was vortexed for 2 min followed by ultraturrax treatment for 2 min.
Male BALB/cAnNCrl mice (n = 3 per test item and administration route) received a bolus dose of the formulated test item(s) (1 mg/kg iv, 30 mg/kg po) at t = 0 h, and whole blood samples were collected subsequently (35 µl at 0.1 (iv) / 0.25 (po), 0.5, 1, 2, 4, 6 h; 600 µl at sacrifice after 24 h). Animals were euthanized by exsanguination in deep isoflurane anesthesia. Whole blood samples were immediately stored on ice at about 4 °C. Plasma was separated by centrifugation at approximately 10,000 × g for 5 m at +4 °C. Centrifugation of each blood sample was started within 10 m after collection. A single aliquot of at least 15 µL of plasma was prepared and immediately stored at −20 ± 5 °C.
Sample proteins were precipitated with ACN (1 + 12, v/v) containing internal standard, and supernatants analyzed by quantitative UPLC-MS/MS: Phenomenex Luna Omega C18, 2.1 × 50 mm, 1.6 µm, 40 °C, gradient between 10% - 90% ACN with 0.1% formic acid. LogD determination: Lipophilicity of the test items, expressed as chromLogD7.5, was assessed by measuring their chromatographic retention times on C18-material. The chromatographic retention versus logD7.5 values of a series of thirteen n-alkan-2-ones (2-butanone – 2-hexadecanone) served as lipophilicity calibration.

[5] = tested on: non-replicating cells of Mtb H37Rv; format: cell-based, Mycobacterium tuberculosis
[6] = molecular target: His6-tagged ClpC1-NTD substrate, M. smegmatis ClpC1P1P2 (UniProt A0R574+P9WPC9); test: biochemical; format: biochemical
Sequence of His6-tagged ClpC1-NTD substrate, M. smegmatis ClpC1P1P2 (P9WPC9 1-156, looked up, natural form): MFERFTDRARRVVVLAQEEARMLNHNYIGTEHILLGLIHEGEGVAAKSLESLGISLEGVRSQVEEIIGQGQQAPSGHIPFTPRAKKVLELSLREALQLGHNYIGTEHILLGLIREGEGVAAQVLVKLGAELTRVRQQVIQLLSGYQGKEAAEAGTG
Sequence of His6-tagged ClpC1-NTD substrate, M. smegmatis ClpC1P1P2 (A0R574 whole entry): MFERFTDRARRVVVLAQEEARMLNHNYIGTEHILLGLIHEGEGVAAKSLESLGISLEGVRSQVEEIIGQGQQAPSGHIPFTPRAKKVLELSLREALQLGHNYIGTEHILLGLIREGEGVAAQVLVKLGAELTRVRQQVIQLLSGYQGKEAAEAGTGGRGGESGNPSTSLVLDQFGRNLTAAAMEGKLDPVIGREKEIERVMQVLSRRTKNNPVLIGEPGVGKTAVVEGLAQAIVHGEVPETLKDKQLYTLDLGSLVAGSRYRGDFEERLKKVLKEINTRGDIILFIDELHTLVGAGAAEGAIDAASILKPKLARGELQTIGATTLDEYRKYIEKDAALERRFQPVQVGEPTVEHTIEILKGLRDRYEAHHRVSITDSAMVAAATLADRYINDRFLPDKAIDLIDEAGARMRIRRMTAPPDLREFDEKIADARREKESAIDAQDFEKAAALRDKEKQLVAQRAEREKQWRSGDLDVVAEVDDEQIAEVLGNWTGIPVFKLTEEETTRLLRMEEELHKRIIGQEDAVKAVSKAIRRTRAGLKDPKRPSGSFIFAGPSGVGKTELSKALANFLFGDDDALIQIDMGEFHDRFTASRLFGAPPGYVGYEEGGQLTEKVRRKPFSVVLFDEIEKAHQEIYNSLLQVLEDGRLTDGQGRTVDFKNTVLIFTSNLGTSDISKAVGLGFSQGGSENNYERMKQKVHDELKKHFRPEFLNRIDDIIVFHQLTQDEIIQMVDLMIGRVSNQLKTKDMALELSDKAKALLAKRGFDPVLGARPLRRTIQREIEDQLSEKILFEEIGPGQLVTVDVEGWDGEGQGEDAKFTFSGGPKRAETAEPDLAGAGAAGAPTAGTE

[7] = tested on: Mycobacterium avium; test: microbe, parasite or virus in culture; format: cell-based
[8] = tested on: Mycobacterium intracellulare; test: microbe, parasite or virus in culture; format: cell-based
[9] = tested on: Mtb ATCC 35825; test: microbe, parasite or virus in culture; format: cell-based
[10] = tested on: Mtb # 8673; test: microbe, parasite or virus in culture; format: cell-based
[11] = Experiment 2, three replicate columns
[12] = single well replicates, listed as 12 (UdSBI-4377)

In the case of `COC(c1ccccc1)C1NC(=O)C(C)NC(=O)C(CC(C)CO)N(C)C(=O)C(Cc2cn(C)c3ccccc23)NC(=O)C(Cc2cn(CCCCCn3cc(CC4NC(=O)C(CC(C)C)N(C)C(=O)C(C(C)C)NC(=O)C(C(OC)c5ccccc5)NC(=O)C(C)NC(=O)C(CC(C)CO)N(C)C(=O)C(Cc5cn(C)c6ccccc56)NC4=O)nn3)nn2)NC(=O)C(CC(C)C)N(C)C(=O)C(C(C)C)NC1=O` (stereo not drawn) [Compound 12], the “colony growth after replating (MBC assay)” value [1] is reported as “did not form any colonies at concentrations at or above the MIC value”, the MBC ([1]; read-out: MBC (from Set 3) Mtb H37Rv) is reported as 0.1 µM and 0.2 µg/mL and the MBC ([1]; read-out: MBC Mtb H37Rv) is reported as 0.1 µM and 0.2 µg/mL. The DC50 [2] was 7.1 µM, the “Microsomal Stability Rat” value [3] was under 23 %Qh and the “Microsomal Stability Rat QH” value [3] was under 23.1%. The AUC0-inf/Dose [4] was 62.6 h*nM/nmol/kg, the AUC0-t/Dose [4] was 45.5 h*nM/nmol/kg and the BA [4] was 0.7%. For the same compound, the Cmax/Dose [4] was 2.56 nM/nmol/kg, the “inhibitory activity on non-growing Mtb H37Rv” value [5] was “lost their inhibitory activity” and the DC50 ([6]; read-out: DC50, single measurements) was 10.3 µM and 9.3 µM and 5.3 µM and 8.3 µM and 7.6 µM. The DC50 ([6]; read-out: DC50 M.smegmatis ClpC1P1P2 Mean) was 8.4 µM, the Dmax ([6]; read-out: DMax M.smegmatis ClpC1P1P2 Mean) was 81% and the MIC ([7]; Experiment 1, listed as 12 (UdSBI-4377), read-out: MIC Mycobacterium avium) was over 50 µM. For the same compound, the “MIC (µg/ml) Mycobacterium avium” value [7, 11] was over 99.02 µg/mL, the MIC ([7]; Experiment 2, three replicate columns, read-out: MIC (µM) Mycobacterium avium) was over 50 µM and the MIC ([7]; Mycobacterium avium, Experiment 1, read-out: MIC Mycobacterium avium) was over 99 µg/mL. The MIC ([7]; Mycobacterium avium, Experiment 2, three replicate columns, read-out: MIC (µM) Mycobacterium avium) was over 50 µM, the MIC ([7]; Mycobacterium avium, Experiment 2, three replicate columns, read-out: MIC (µg/ml) Mycobacterium avium) was over 99 µg/mL and the MIC ([7]; Mycobacterium avium, mean ± SD, read-out: MIC Mycobacterium avium) was over 50 µM. The MIC ([8]; Experiment 1, listed as 12 (UdSBI-4377), read-out: MIC Mycobacterium intracellulare) was over 50 µM, the “MIC (µg/ml) Mycobacterium intracellulare” value [8, 11] was over 99.02 µg/mL and the MIC ([8]; Experiment 2, three replicate columns, read-out: MIC (µM) Mycobacterium intracellulare) was over 50 µM. The MIC ([8]; Mycobacterium intracellulare, Experiment 1, read-out: MIC Mycobacterium intracellulare) was over 99 µg/mL, the MIC ([8]; Mycobacterium intracellulare, Experiment 2, three replicate columns, read-out: MIC (µM) Mycobacterium intracellulare) was over 50 µM and the MIC ([8]; Mycobacterium intracellulare, Experiment 2, three replicate columns, read-out: MIC (µg/ml) Mycobacterium intracellulare) was over 99 µg/mL. For the same compound, the MIC ([8]; Mycobacterium intracellulare, mean ± SD, read-out: MIC Mycobacterium intracellulare) was over 50 µM, the MIC ([9]; Mycobacterium tuberculosis, ATCC35825, mean, n = 2 well replicates) was < 0.1 µM and < 0.2 µg/mL and the MIC ([9]; Mycobacterium tuberculosis, ATCC35825, single well replicates) was < 0.19 µg/mL and < 0.1 µM. For the same compound, the MIC [9, 12] was under 0.1 µM, the “MIC Mtb ATCC 35825” value [9, 12] was under 0.19 µg/mL and the MIC ([10]; Mycobacterium tuberculosis, mean, n = 2 well replicates) was < 0.1 µM and < 0.2 µg/mL. The MIC ([10]; Mycobacterium tuberculosis, single well replicates) was < 0.1 µM and < 0.19 µg/mL, the MIC [10, 12] was under 0.1 µM and the “MIC Mtb # 8673” value [10, 12] was under 0.19 µg/mL.

Source: PMC10914731, “Homo-BacPROTAC-induced degradation of ClpC1 as a strategy against drug-resistant mycobacteria” (Nature Communications, 2024)
